Source: the supplement of paper PMC10307832

Legend:
Assay in all cases: relative viability (nuclei count vs DMSO), 5 days (fraction); higher = more cells survive
Mirin + Navitoclax = compound: N=C1NC(=O)/C(=C/c2ccc(O)cc2)S1 [Mirin] + CC1(C)CCC(c2ccc(Cl)cc2)=C(CN2CCN(c3ccc(C(=O)NS(=O)(=O)c4ccc(N[C@H](CCN5CCOCC5)CSc5ccccc5)c(S(=O)(=O)C(F)(F)F)c4)cc3)CC2)C1 [Navitoclax] (partner 0.5 µM)
How it was run: (§1)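 Each reported value is a median over duplicate plates. It expresses relative viability: treated-well nuclei count divided by vehicle-well nuclei count. Lung cancer cell lines in 1536-well plates were dosed by pin tool a day after seeding, alone with one drug or with a fixed anchor-drug dose plus five library-drug doses (not always all listed) in √10 steps, and nuclei were counted after 5 days.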

[1] = compound: CCn1c(-c2nonc2N)nc2cnc(Oc3cccc(NC(=O)c4ccc(OCCN5CCOCC5)cc4)c3)cc21 + CC(C)C[C@H](NC(=O)[C@H](Cc1ccccc1)NC(=O)c1cnccn1)B(O)O [Bortezomib] (partner 0.002 µM)
How it was run: as §1

Mirin + Pemetrexed = compound: N=C1NC(=O)/C(=C/c2ccc(O)cc2)S1 [Mirin] + Nc1nc2[nH]cc(CCc3ccc(C(=O)N[C@@H](CCC(=O)O)C(=O)O)cc3)c2c(=O)[nH]1 [Pemetrexed] (partner 0.2 µM)
How it was run: as §1

[2] = compound: CCn1c(-c2nonc2N)nc2cnc(Oc3cccc(NC(=O)c4ccc(OCCN5CCOCC5)cc4)c3)cc21 + Cc1cc(Nc2cc(N3CCN(C)CC3)nc(Sc3ccc(NC(=O)C4CC4)cc3)n2)n[nH]1 [Tozasertib] (partner 0.1 µM)
How it was run: as §1

Row | Cell Line | relative viability (Mirin + Navitoclax; first compound 0.25 µM) | relative viability (Mirin + Navitoclax; first compound 0.7906 µM) | relative viability (Mirin + Navitoclax; first compound 2.5 µM) | relative viability (Mirin + Navitoclax; first compound 7.906 µM) | relative viability (Mirin + Navitoclax; first compound 25 µM) | relative viability ([1]; first compound 0.04 µM) | relative viability ([1]; first compound 0.1265 µM) | relative viability ([1]; first compound 0.4 µM) | relative viability ([1]; first compound 1.265 µM) | relative viability ([1]; first compound 4 µM) | relative viability (Mirin + Pemetrexed; first compound 0.25 µM) | relative viability (Mirin + Pemetrexed; first compound 0.7906 µM) | relative viability (Mirin + Pemetrexed; first compound 2.5 µM) | relative viability (Mirin + Pemetrexed; first compound 7.906 µM) | relative viability (Mirin + Pemetrexed; first compound 25 µM) | relative viability ([2]; first compound 0.04 µM) | relative viability ([2]; first compound 0.1265 µM) | relative viability ([2]; first compound 1.265 µM) | relative viability ([2]; first compound 4 µM) | relative viability ([2]; first compound 0.4 µM)
1 | IA-LM | 0.835 | 0.899 | 0.705 | 0.498 | 0.752 | 1.31 | 0.972 | 0.99 | 0.795 | 0.811 |  |  |  |  |  |  |  |  |  | 
2 | NCI-H441 | 0.49 | 0.802 | 0.571 | 0.447 | 0.483 | 0.484 | 0.895 | 0.458 | 0.42 | 0.374 | 0.227 | 0.262 | 0.251 | 0.261 | 0.251 | 0.834 | 0.546 | 0.344 | 0.354 | 
3 | NCI-H1792 | 0.611 | 0.529 | 0.68 | 0.583 | 0.695 | 1.09 | 1 |  | 0.631 | 0.817 | 0.772 | 0.653 | 1.15 | 0.708 | 0.844 |  |  |  |  | 
4 | LXF-289 | 0.934 | 0.986 | 0.97 | 1.01 | 1.13 | 1.03 | 1.04 | 0.932 | 0.728 | 0.646 | 0.902 | 0.856 | 0.923 | 0.791 | 0.821 | 0.221 | 0.198 | 0.104 | 0.0834 | 0.195
5 | HCC-827 | 1.01 | 1 | 1 | 1.07 | 1.27 | 0.99 | 1.04 | 0.906 | 0.666 | 0.885 | 0.246 | 0.258 | 0.224 | 0.254 | 0.282 | 0.453 | 0.434 | 0.383 | 0.346 | 0.387
6 | EMC-BAC-2 | 1.16 | 1.29 | 1.17 | 1.08 | 1.17 | 1.18 | 0.967 | 0.792 | 0.731 | 0.442 | 0.475 | 0.431 | 0.452 | 0.375 | 0.41 | 0.231 | 0.283 | 0.165 | 0.155 | 0.249
7 | SW 900 |  |  |  |  |  |  |  |  |  |  | 0.505 | 0.494 | 0.47 | 0.494 | 0.48 | 0.625 | 0.706 | 0.488 | 0.431 | 0.637
8 | SK-MES-1 | 1.2 | 1.34 | 1.23 | 1.19 | 1.4 |  |  |  |  |  | 0.993 | 1.09 | 0.998 | 1.08 | 1.01 | 0.811 | 0.657 | 0.228 | 0.21 | 0.518
9 | NCI-H1299 | 0.998 | 1.1 | 1.09 | 1.03 | 1.2 | 1.06 | 0.975 | 0.929 | 0.825 | 0.734 |  |  |  |  |  |  |  |  |  | 
10 | NCI-H1563 |  |  |  |  |  | 0.793 | 0.821 | 0.669 | 0.753 | 0.603 | 0.854 | 0.898 | 0.98 | 0.745 | 0.769 |  |  |  |  | 
11 | NCI-H727 | 0.518 | 0.473 | 0.393 | 0.728 | 0.454 | 1.44 | 0.983 | 0.787 | 0.97 | 0.88 |  |  |  |  |  | 0.609 | 0.666 | 0.478 | 0.502 | 0.586
12 | NCI-H1944 | 1.03 |  | 1.07 | 1.08 | 0.861 |  |  |  |  |  | 0.636 | 0.627 | 0.598 | 0.558 | 0.598 | 0.248 | 0.279 | 0.228 | 0.213 | 0.273
13 | LK-2 | 0.752 | 0.625 | 0.799 | 0.588 | 0.525 |  |  |  |  |  | 0.129 |  | 0.257 | 0.164 | 0.257 | 0.198 | 0.159 | 0.179 | 0.171 | 0.173
14 | Calu-6 | 0.879 | 1 | 0.839 | 0.806 | 0.794 | 1.03 | 0.922 | 0.771 | 0.5 | 0.469 |  |  |  |  |  |  |  |  |  | 
15 | NCI-H1395 | 1.24 |  | 1.12 | 1.04 | 1.09 |  |  |  |  |  | 0.898 |  | 0.847 | 0.829 | 0.618 | 0.916 | 0.799 | 0.38 | 0.493 | 0.701
16 | NCI-H650 |  |  |  |  |  | 1.14 | 0.631 | 0.349 | 0.295 | 0.374 | 1.05 | 0.865 | 0.928 | 0.711 | 0.94 | 1.01 | 0.639 | 0.283 | 0.271 | 0.41
17 | NCI-H661 |  |  |  |  |  | 0.896 | 0.865 | 0.815 | 0.608 | 0.616 | 0.906 | 1.01 | 0.942 | 0.953 | 0.822 | 0.377 | 0.367 | 0.372 | 0.266 | 0.37
18 | NCI-H1703 | 1.27 | 1.21 | 1.26 |  | 0.685 | 0.369 | 0.283 | 0.178 | 0.187 | 0.178 |  |  |  |  |  |  |  |  |  | 
19 | EBC-1 | 0.419 | 0.479 | 0.456 | 0.368 | 0.144 | 0.771 | 0.566 | 0.537 | 0.458 | 0.342 |  |  |  |  |  |  |  |  |  | 
20 | NCI-H2342 |  |  |  |  |  |  |  |  |  |  | 0.728 | 0.801 | 0.769 |  | 0.735 | 0.599 | 0.561 | 0.437 | 0.425 | 0.463
21 | NCI-H1648 |  |  |  |  |  |  |  |  |  |  | 0.76 |  | 0.853 | 0.678 | 0.55 | 0.415 | 0.833 | 0.713 | 0.547 | 0.88
22 | NCI-H522 |  |  |  |  |  |  |  |  |  |  | 0.799 | 1.02 | 0.764 | 1 | 0.522 | 0.474 | 0.478 | 0.509 | 0.482 | 0.544
23 | A549 | 1.09 | 1.38 | 1.08 | 1.32 | 1.31 |  |  |  |  |  |  |  |  |  |  |  |  |  |  | 
24 | LCLC-103H |  |  |  |  |  | 1.08 | 1.11 | 0.932 | 0.651 | 0.716 | 0.441 | 0.523 | 0.487 | 0.425 | 0.435 | 0.508 | 0.463 | 0.465 | 0.419 | 0.534
